Drawing on US12473295B2, “Substituted straight chain spiro derivatives” (Janssen Pharmaceutica NV, priority 2019, dated 2025), this text covers IC50 for 13 compounds.

Data set [1] addresses menin/MLL (terbium chelate-labeled menin, FITC-MBM1 peptide) (Homo sapiens (Human), UniProt O00255). Kind of data set: Menin/MLL homogenous time-resolved fluorescence (HTRF) assay.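 Also: IC50 from percent inhibition of HTRF signal, normalized between wells without competitor and wells with a saturating competitor that displaces FITC-MBM1 from His-tagged menin.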 It counts as binding.
In a further data set the test system is OCI-AML3 cells. Kind of data set: Proliferation assay (spheroid growth, 8 days), OCI-AML3. It is filed as cell-based, human. In short, it runs like this:
(§1)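 Cells were seeded at 200 (MOLM14, OCI-AML3) or 300 (KO-52) per well in ultra-low attachment round-bottom plates with compounds at several concentrations, 0.3% DMSO, and grown 8 days at 37° C. Spheroid confluence was imaged on day 8; IC50 came from a variable-slope fit normalized to DMSO and high-dose reference compound.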

The next data set has as its system MEIS1 mRNA. Kind of data set: MEIS1 mRNA expression assay (Quantigene Singleplex) in MOLM14 cells.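 Also: MEIS1 transcript levels read by probe hybridization and normalized to RPL28 mRNA, with IC50 fitted to fold changes across a rising compound concentration series.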 It is filed as cell-based, human.
In another data set the test system is MOLM14 cells. Kind of data set: Proliferation assay (spheroid growth, 8 days), MOLM14.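 Also: spheroid size read as confluence by live-cell imaging, compounds added at a range of concentrations with 0.3% DMSO, DMSO-treated wells = 0%, highest reference dose = low control.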 Particulars: MOLM14, 8 days, read-out: spheroid assay_OneTime MOLM14 IC50. It is filed as cell-based, human.
The subject of a further data set is KO-52 cells. Kind of data set: Proliferation assay (spheroid growth, 8 days), KO-52 control cell line. It is filed as cell-based, human. Particulars: read-out: spheroid assay_OneTime KO-52 IC50. In short, it runs like this:
as §1

For another data set, the target named is hERG potassium channel (Homo sapiens (Human), UniProt Q12809). Kind of data set: Effect on membrane potassium current IKr in hERG transfected CHO cells, Protocol 1 (QPatch). It is filed as cell-based. As to the method:
8) Effect on the Membrane Potassium Current IKr in hERG Transfected Cell Lines
• CHO Chinese hamster ovary cell line • DMSO Dimethylsulfoxide • hERG human ether-á-go-go-related gene • IKr rapidly activating delayed-rectifier K^+ current Methods
Experiments were performed using CHO cells stably expressing the hERG potassium channel. Cells were grown at 37° C. and 5% CO2 in culture flasks in Ham's F12 Medium supplemented with 10% heat-inactivated fetal calf serum, hygromycin B (100 μg/ml) and geneticin (100 μg/ml). For use in the automated patch-clamp system QPatch (Sophion) cells were harvested to obtain cell suspension of single cells.
Solutions: The bath solution contained (in mM) 145 NaCl, 4 KCl, 10 glucose, 10 HEPES ((4-(2-hydroxyethyl)-1-piperazineethanesulfonic acid), 2 CaCl2 and 1 MgCl2 (pH 7.4 with NaOH). The pipette solution contained (in mM) 120 KCl, 10 EGTA (Ethylene glycol-bis(2-aminoethylether)-N,N,N′,N′-tetraacetic acid), 10 HEPES, 5.374 CaCl2 and 1.75 MgCl2 (pH 7.2 with KOH).
Patch-clamp experiments were performed in the voltage-clamp mode and whole-cell currents were recorded with an automated patch-clamp assay utilizing the QPatch system (Sophion). Current signals were amplified and digitized, stored and analyzed by using the QPatch assay software.
The holding potential was −80 mV. The hERG current (K^+-selective outward current) was determined as the maximal tail current at −40 mV after a 2 second depolarization to +60 mV. Pulse cycling rate was 15 s. A short pulse (90 ms) to −40 mV served as a baseline step to calculate the tail current amplitude. After establishing whole-cell configuration and a stability period, the solvent control (0.3% DMSO) was applied for 5 minutes followed by the test substance by four increasing concentrations of 3×10^−7 M, 3×10^−6 M, 10^−5 M and 3×10^−5 M. Each concentration of the test substance was applied twice. The effect of each concentration was determined after 5 min as an average current of 3 sequential voltage pulses. To determine the extent of block the residual current was compared with vehicle pre-treatment.
Concentration/response relations were calculated by non-linear least-squares fits to the individual data points. The half-maximal inhibiting concentration (IC50) was calculated by the fitting routine.

Where [2] appears, read: HTRF-30 min incubation IC50, 30 min incubation.
The mark [3] stands for this setting: Homo sapiens, OCI-AML-3, […], OCI-AML3, 8 days.
The mark [4] stands for this setting: Homo sapiens, MOLM-14, 48 h, 48 hours incubation.
Where [5] appears, read: Homo sapiens, OCI-AML-3, OCI-AML3, 8 days.
The mark [6] stands for this setting: Homo sapiens, MOLM-14, 48 hours incubation.

Structures are written as SMILES. Counter-ions that a name gives are not always drawn. Like-named read-outs stand apart in the source and are kept apart here. Where only a bound is given, the exact number is not on record here.

Sequence of menin/MLL (terbium chelate-labeled menin, FITC-MBM1 peptide) (O00255 other isoform, or with tags, fused parts or gaps): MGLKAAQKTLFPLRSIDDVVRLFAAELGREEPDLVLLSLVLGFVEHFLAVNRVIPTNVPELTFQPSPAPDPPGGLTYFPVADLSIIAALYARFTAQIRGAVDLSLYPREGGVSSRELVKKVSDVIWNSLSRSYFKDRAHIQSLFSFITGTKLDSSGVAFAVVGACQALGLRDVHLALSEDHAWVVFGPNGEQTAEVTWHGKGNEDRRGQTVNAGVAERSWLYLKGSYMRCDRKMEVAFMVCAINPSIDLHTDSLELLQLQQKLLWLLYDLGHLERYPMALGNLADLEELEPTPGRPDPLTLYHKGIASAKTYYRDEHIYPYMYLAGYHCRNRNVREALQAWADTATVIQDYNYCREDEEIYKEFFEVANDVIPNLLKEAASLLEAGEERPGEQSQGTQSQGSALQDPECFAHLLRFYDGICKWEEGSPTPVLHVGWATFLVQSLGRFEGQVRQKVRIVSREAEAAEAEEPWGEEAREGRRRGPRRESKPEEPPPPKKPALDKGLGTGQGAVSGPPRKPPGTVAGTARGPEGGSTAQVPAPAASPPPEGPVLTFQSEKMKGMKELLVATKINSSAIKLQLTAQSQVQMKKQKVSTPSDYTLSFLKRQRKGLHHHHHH
Sequence of hERG potassium channel (Q12809 whole entry): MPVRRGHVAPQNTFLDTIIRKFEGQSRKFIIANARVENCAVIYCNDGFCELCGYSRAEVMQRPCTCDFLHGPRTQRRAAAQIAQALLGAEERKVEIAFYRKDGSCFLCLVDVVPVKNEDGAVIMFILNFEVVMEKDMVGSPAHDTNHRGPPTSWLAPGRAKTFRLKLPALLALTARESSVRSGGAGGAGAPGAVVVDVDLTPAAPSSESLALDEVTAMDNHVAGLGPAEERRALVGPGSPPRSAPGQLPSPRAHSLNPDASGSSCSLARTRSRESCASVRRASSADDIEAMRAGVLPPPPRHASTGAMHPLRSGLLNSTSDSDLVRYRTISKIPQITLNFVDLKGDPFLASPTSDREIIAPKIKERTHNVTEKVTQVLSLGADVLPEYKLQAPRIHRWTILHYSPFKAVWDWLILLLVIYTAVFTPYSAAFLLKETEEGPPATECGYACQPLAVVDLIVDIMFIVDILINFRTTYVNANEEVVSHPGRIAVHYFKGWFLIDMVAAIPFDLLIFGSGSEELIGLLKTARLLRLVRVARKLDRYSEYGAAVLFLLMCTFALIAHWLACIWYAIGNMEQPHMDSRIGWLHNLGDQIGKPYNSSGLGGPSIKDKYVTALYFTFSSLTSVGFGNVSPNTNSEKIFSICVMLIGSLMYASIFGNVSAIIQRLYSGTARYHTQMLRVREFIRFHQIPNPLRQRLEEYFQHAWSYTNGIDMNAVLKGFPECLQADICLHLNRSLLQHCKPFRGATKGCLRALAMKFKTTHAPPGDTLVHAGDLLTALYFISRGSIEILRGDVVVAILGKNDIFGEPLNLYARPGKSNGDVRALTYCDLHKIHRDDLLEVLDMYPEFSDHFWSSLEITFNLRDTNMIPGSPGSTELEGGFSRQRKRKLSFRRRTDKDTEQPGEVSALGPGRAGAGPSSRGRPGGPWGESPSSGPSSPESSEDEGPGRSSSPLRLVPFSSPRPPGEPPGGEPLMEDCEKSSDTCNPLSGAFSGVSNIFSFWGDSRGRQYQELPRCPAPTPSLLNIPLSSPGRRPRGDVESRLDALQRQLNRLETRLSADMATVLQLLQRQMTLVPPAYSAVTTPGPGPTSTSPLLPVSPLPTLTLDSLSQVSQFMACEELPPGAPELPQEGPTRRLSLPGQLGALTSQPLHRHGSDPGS

As to `CCN(C(=O)c1cc(F)ccc1Oc1nncnc1N1CCC2(C1)CN([C@H](CCC(C)(C)N)C(C)C)C2)C(C)C` (single isomer, unassigned) [Compound 30, (*R)-2-((5-(2-(6-amino-2,6-dimethylheptan-3-yl)-2,6-diazaspiro[3.4]octan-6-yl)-1,2,4-triazin-6-yl)oxy)-N-ethyl-5-fluoro-N-isopropylbenzamide], the half-maximal inhibitory concentration (IC50) in data set [1] (setting [2]) is 0.067 nM; in the data set with OCI-AML3 cells (setting [3]), 470 nM; with MEIS1 mRNA (setting [4]) it was 99 nM; in the data set with MOLM14 cells (Homo sapiens, MOLM-14, […]), 130 nM; in the data set with KO-52 cells (Homo sapiens, […]), over 15000 nM; on hERG potassium channel it was over 30200 nM.

On to `CCN(C(=O)c1cc(F)ccc1Oc1nncnc1N1CCC2(C1)CN([C@H](CCC(C)(C)N(C)C)C(C)C)C2)C(C)C` (single isomer, unassigned) [Compound 32, (*R)-2-((5(2-(6-(dimethylamino)-2,6-dimethylheptan-3-yl)-2,6-diazaspiro[3.4]octan-6-yl)-1,2,4-triazin-6-yl)oxy)-N-ethyl-5-fluoro-N-isopropylbenzamide], for which the IC50 in data set [1] (setting [2]) was 0.1 nM; in the data set with OCI-AML3 cells (setting [3]), 280 nM; with MEIS1 mRNA (setting [4]), 88 nM; in the data set on MOLM14 cells (Homo sapiens, MOLM-14, […]) it was 58 nM; in the data set with KO-52 cells (Homo sapiens, […]), 12900 nM; against hERG potassium channel it was over 30200 nM.

`CCN(C(=O)c1cc(F)ccc1Oc1nncnc1N1CCC2(C1)CN([C@H](CCC(C)(C)NC(C)=O)C(C)C)C2)C(C)C` (single isomer, unassigned) [Compound 34]: the IC50 in data set [1] (setting [2]) was 0.87 nM; in the data set on OCI-AML3 cells (setting [3]), 3440 nM; in the data set with MEIS1 mRNA (setting [4]) it was over 1000 nM; with MOLM14 cells (Homo sapiens, MOLM-14, […]), 3840 nM; with KO-52 cells (Homo sapiens, […]), over 15000 nM; on hERG potassium channel it was over 30200 nM.

As for `CCN(C(=O)c1cc(F)ccc1Oc1nncnc1N1CCC2(C1)CN([C@H](CCC(C)(C)NC)C(C)C)C2)C(C)C` (single isomer, unassigned) [Compound 35, (*R)-2-((5-(2-(2,6-dimethyl-6-(methylamino)heptan-3-yl)-2,6-diazaspiro[3.4]octan-6-yl)-1,2,4-triazin-6-yl)oxy)-N-ethyl-5-fluoro-N-isopropylbenzamide hydrochloride], the IC50 in data set [1] (setting [2]) is 0.15 nM; in the data set with OCI-AML3 cells (setting [3]) it was 490 nM; in the data set on MEIS1 mRNA (setting [4]), 120 nM; with MOLM14 cells (Homo sapiens, MOLM-14, […]) it was 200 nM; with KO-52 cells (Homo sapiens, […]), over 15000 nM; on hERG potassium channel, over 30200 nM.

As for `CC(C)[C@@H](CCCN(C)C)N1CC2(CCN(c3ccnnc3Oc3ccc(F)cc3C(=O)N(C(C)C)C(C)C)C2)C1` (single isomer, unassigned) [Compound 75, (*R)-2-((4-(2-(6-(dimethylamino)-2-methylhexan-3-yl)-2,6-diazaspiro[3.4]octan-6-yl)pyridazin-3-yl)oxy)-5-fluoro-N,N-diisopropylbenzamide], the IC50 in data set [1] (read-out: HTRF-30 min incubation IC50, 30 min incubation) is 0.21 nM; in the data set on OCI-AML3 cells (OCI-AML3, 8 days), 410 nM; with MEIS1 mRNA (48 hours incubation), 140 nM; in the data set on MOLM14 cells, 53 nM; with KO-52 cells, over 15000 nM; on hERG potassium channel it was over 30200 nM.

As for `COCCN(C)CCC[C@H](C(C)C)N1CC2(CCN(c3ncnnc3Oc3ccc(F)cc3C(=O)N(C(C)C)C(C)C)C2)C1` (single isomer, unassigned) [Compound 94, (*R)-5-fluoro-N,N-isopropyl-2-((5-(2-(6-((2-methoxyethyl)(methyl)amino)-methylhexan-3-yl)-2,6-diazaspiro[3.4]octan-6-yl)-1,2,4-triazin-6-yl)oxy)benzamide oxalate], the half-inhibitory concentration (IC50) in data set [1] (setting [2]) came to 0.12 nM; in the data set with OCI-AML3 cells (setting [3]), 96 nM; in the data set with MEIS1 mRNA (setting [4]), 8.2 nM; in the data set with MOLM14 cells (Homo sapiens, MOLM-14, […]), 10 nM; with KO-52 cells (Homo sapiens, […]), 4750 nM; against hERG potassium channel it was 30900 nM.

With `CCN(C(=O)c1cc(F)ccc1Oc1nncnc1N1CCC2(C1)CN([C@H](CCCN(C)C)C(C)C)C2)C(C)C` [Compound 4, (R)-2-((5-(2-(6-(dimethylamino)-2-methylhexan-3-yl)-2,6-diazaspiro[3.4]octan-6-yl)-1,2,4-triazin-6-yl)oxy)-N-ethyl-5-fluoro-N-isopropylbenzamide], the IC50 is 0.095 nM in data set [1] (setting [2]); 390 nM in the data set with OCI-AML3 cells (setting [3]); 20 nM in the data set with MEIS1 mRNA (setting [4]); 30 nM in the data set on MOLM14 cells (Homo sapiens, MOLM-14, […]); over 15000 nM in the data set on KO-52 cells (Homo sapiens, […]); over 30200 nM against hERG potassium channel.

In the case of `CCN(C(=O)c1cc(F)ccc1Oc1nncnc1N1CCC2(C1)CN([C@H](CCCNC(=O)OC)C(C)C)C2)C(C)C` [Compound 10, methyl (R)-(4-(6-(6-(2-(ethyl(isopropyl)carbamoyl)-4-fluorophenoxy)-1,2,4-triazin-5-yl)-2,6-diazaspiro[3.4]octan-2-yl)-5-methylhexyl)carbamate], the IC50 in data set [1] (setting [2]) is 0.18 nM; in the data set with OCI-AML3 cells (setting [5]), 1680 nM; with MEIS1 mRNA (setting [6]), 410 nM; with MOLM14 cells (Homo sapiens, MOLM-14) it was 340 nM; in the data set on KO-52 cells (Homo sapiens), over 15000 nM; against hERG potassium channel it was over 30200 nM.

Consider `CCN(C(=O)c1cc(F)ccc1Oc1nncnc1N1CCC2(C1)CN([C@H](CCCNCCC#N)C(C)C)C2)C(C)C` [Compound 12, (R)-2-((5(2-(6-((2-cyanoethyl)amino)-2-methylhexan-3-yl)-2,6-diazaspiro[3.4]octan-6-yl)-1,2,4-triazin-6-yl)oxy)-N-ethyl-5-fluoro-N-isopropylbenzamide], for which the half-inhibitory concentration (IC50) in data set [1] (setting [2]) is 0.12 nM; in the data set on OCI-AML3 cells (setting [5]) it was 630 nM; with MEIS1 mRNA (setting [6]), 39 nM; with MOLM14 cells (Homo sapiens, MOLM-14), 36 nM; in the data set with KO-52 cells (Homo sapiens), 8240 nM; at hERG potassium channel it was over 30200 nM.

`CCN(C(=O)c1cc(F)ccc1Oc1nncnc1N1CCC2(C1)CN([C@H](CCCNCCC(F)(F)F)C(C)C)C2)C(C)C` [Compound 14, (R)-N-ethyl-5-fluoro-N-isopropyl-2-((5-(2-(2-methyl-6-((3,3,3-trifluoropropyl)amino)hexan-3-yl)-2,6-diazaspiro[3.4]octan-6-yl)-1,2,4-triazin-6-yl)oxy)benzamide]: the IC50 in data set [1] (setting [2]) turned out to be 0.05 nM; in the data set with OCI-AML3 cells (setting [3]) it was 69 nM; in the data set on MEIS1 mRNA (setting [4]), 8.5 nM; with MOLM14 cells (Homo sapiens, MOLM-14, […]), 10 nM; in the data set on KO-52 cells (Homo sapiens, […]), 3100 nM; against hERG potassium channel, 20000 nM.

On to `CCN(C(=O)c1cc(F)ccc1Oc1nncnc1N1CCC2(C1)CN([C@H](CCCN(C)C(=O)OC)C(C)C)C2)C(C)C` [Compound 22, methyl (R)-(4-(6-(6-(2-(ethyl(isopropyl)carbamoyl)-4-fluorophenoxy)-1,2,4-triazin-5-yl)-2,6-diazaspiro[3.4]octan-2-yl)-5-methylhexyl)(methyl)carbamate], for which the IC50 was 1.79 nM in data set [1] (setting [2]); about 760 nM with MEIS1 mRNA (setting [4]); 360 nM with MOLM14 cells (Homo sapiens, MOLM-14, […]); 12800 nM with KO-52 cells (Homo sapiens, […]); 20900 nM at hERG potassium channel.

On hERG potassium channel, `CCN(C(=O)c1cc(F)ccc1Oc1nncnc1N1CCC2(C1)CN(C(CCCO)C(C)C)C2)C(C)C` (centres unmarked) [Compound 49, N-ethyl-5-fluoro-2-((5-(2-(6-hydroxy-2-methylhexan-3-yl)-2,6-diazaspiro[3.4]octan-6-yl)-1,2,4-triazin-6-yl)oxy)-N-isopropylbenzamide] returned an IC50 of over 30200 nM.

As for `CCN(CCC[C@H](C(C)C)N1CC2(CCN(c3ncnnc3Oc3ccc(F)cc3C(=O)N(CC)C(C)C)C2)C1)CCOC` [Compound 71, (R)-N-ethyl-2-((5-(2-(6-(ethyl(2-methoxyethyl)amino)-2-methylhexan-3-yl)-2,6-diazaspiro[3.4]octan-6-yl)-1,2,4-triazin-6-yl)oxy)-5-fluoro-N-isopropylbenzamide], the IC50 in the data set on OCI-AML3 cells (setting [3]) is 1470 nM; in the data set with MEIS1 mRNA (setting [4]), 380 nM; in the data set with MOLM14 cells (Homo sapiens, MOLM-14, […]), 560 nM; in the data set with KO-52 cells (Homo sapiens, […]) it was 12800 nM; against hERG potassium channel it was over 30200 nM.
